BindingDB's records for doi:10.1016/j.bmcl.2004.10.084 (University of Illinois At Chicago, 2005)

Molecular target: Beta-secretase 1 (Homo sapiens, UniProt P56817)
Experiment: Enzyme Inhibition Measurements
Conditions: pH 4.5; 37 °C
Method: Enzyme activities were assayed by monitoring the hydrolysis of substrate in the presence or absence of inhibitor compounds. The hydrolysis was recorded as the increase in fluorescence intensity over a 10 min time period. […] The Ki was calculated by using Ki = IC50/ (1 + [S]/Km), and a Km value determined according to Michaelis-Menten.

Sequence of Beta-secretase 1 (P56817 whole entry): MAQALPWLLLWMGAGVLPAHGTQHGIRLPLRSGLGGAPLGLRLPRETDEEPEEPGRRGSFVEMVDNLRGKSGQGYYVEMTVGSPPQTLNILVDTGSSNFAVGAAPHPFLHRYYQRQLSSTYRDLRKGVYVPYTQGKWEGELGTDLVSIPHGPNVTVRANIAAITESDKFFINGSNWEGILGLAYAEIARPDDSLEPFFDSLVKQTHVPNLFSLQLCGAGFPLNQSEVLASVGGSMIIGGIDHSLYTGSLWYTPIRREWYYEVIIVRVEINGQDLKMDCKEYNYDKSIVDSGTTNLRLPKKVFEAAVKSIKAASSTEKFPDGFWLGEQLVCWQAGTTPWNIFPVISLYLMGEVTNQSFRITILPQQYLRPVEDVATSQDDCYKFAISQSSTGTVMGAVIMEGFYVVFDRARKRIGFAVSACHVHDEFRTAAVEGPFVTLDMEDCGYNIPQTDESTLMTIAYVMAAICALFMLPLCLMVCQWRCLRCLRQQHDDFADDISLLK

Ki: 26.6 nM
SMILES: C=CCNC(=O)C[C@H](NC(=O)[C@@H](NC(=O)OCC=C)C(C)C)C(=O)N[C@@H](CC(C)C)[C@@H](O)C[C@@H](C)C(=O)N[C@H](C(=O)NCc1ccccc1)C(C)C [prop-2-en-1-yl N-[(1S)-1-{[(1S)-1-{[(1R,3S,4S)-1-{[(1S)-1-(benzylcarbamoyl)-2-methylpropyl]carbamoyl}-3-hydroxy-1,6-dimethylheptan-4-yl]carbamoyl}-2-(prop-2-en-1-ylcarbamoyl)ethyl]carbamoyl}-2-methylpropyl]carbamate]
